# Assay results: patent publication US7396837B2, “Antitumoral analogs of lamellarins” (Pharma Mar, S.A.U., priority 2002, dated 2008)
# Like-named read-outs stand apart in the source and are kept apart here.
# Experiments:
# Assay type in all cases: cell-based
# K-562 = assay: SRB colorimetric cell growth inhibition assay, K-562; details: Homo sapiens, K562, K-562; for GI50: GI=growth inhibition, read-out: GI50 K-562; for CC50: cell killing (cytotoxic effect), read-out: LC50 K-562; for IC (TGI): total growth inhibition (cytostatic effect), read-out: TGI K-562
# In short: (§1)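 Human tumour cells were exposed continuously to the test sample, and growth and viability were quantified by sulforhodamine B staining. Means ± SD came from triplicate wells, and GI, TGI (cytostatic) and LC (cell killing) parameters were derived.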
# A-549 = assay: SRB colorimetric cell growth inhibition assay, A-549; details: for CC50: cell killing (cytotoxic effect), read-out: LC50 A-549; for GI50: GI=growth inhibition, read-out: GI50 A-549
# In short: as §1
# SK-MEL-28 = assay: SRB colorimetric cell growth inhibition assay, SK-MEL-28; details: for GI50: GI=growth inhibition, read-out: GI50 MEL-28; for CC50: cell killing (cytotoxic effect), read-out: LC50 MEL-28
# In short: as §1
# HT-29 = assay: SRB colorimetric cell growth inhibition assay, HT-29; details: for GI50: GI=growth inhibition, read-out: GI50 HT-29; for CC50: cell killing (cytotoxic effect), read-out: LC50 HT-29
# In short: as §1
# LoVo = assay: SRB colorimetric cell growth inhibition assay, LoVo; details: for GI50: GI=growth inhibition, read-out: GI50 LOVO; for IC (TGI): total growth inhibition (cytostatic effect), read-out: TGI LOVO; for CC50: cell killing (cytotoxic effect), read-out: LC50 LOVO
# In short: as §1
# LoVo-Dox = assay: SRB colorimetric cell growth inhibition assay, LoVo-Dox (MDR); details: Homo sapiens, LOVO-DOX; for GI50: GI=growth inhibition, read-out: GI50 LOVO-DOX; for CC50: cell killing (cytotoxic effect), read-out: LC50 LOVO-DOX; for IC (TGI): total growth inhibition (cytostatic effect), read-out: TGI LOVO-DOX
# In short: as §1
# DU-145 = assay: SRB colorimetric cell growth inhibition assay, DU-145; details: for CC50: cell killing (cytotoxic effect), read-out: LC50 DU-145; for GI50: GI=growth inhibition, read-out: GI50 DU-145; for IC (TGI): total growth inhibition (cytostatic effect), read-out: TGI DU-145
# In short: as §1
# LNCaP = assay: SRB colorimetric cell growth inhibition assay, LNCaP; details: Homo sapiens, LNCaP, LN-caP; for GI50: GI=growth inhibition, read-out: GI50 LN-caP; for CC50: cell killing (cytotoxic effect), read-out: LC50 LN-caP; for IC (TGI): total growth inhibition (cytostatic effect), read-out: TGI LN-caP
# In short: as §1
# SK-BR-3 = assay: SRB colorimetric cell growth inhibition assay, SK-BR-3; details: for CC50: cell killing (cytotoxic effect), read-out: LC50 SK-BR-3; for GI50: GI=growth inhibition, read-out: GI50 SK-BR-3
# In short: as §1
# IGROV = assay: SRB colorimetric cell growth inhibition assay, IGROV; details: Homo sapiens, IGROV; for GI50: GI=growth inhibition, read-out: GI50 IGROV; for CC50: cell killing (cytotoxic effect), read-out: LC50 IGROV; for IC (TGI): total growth inhibition (cytostatic effect), read-out: TGI IGROV
# In short: as §1
# IGROV-ET = assay: SRB colorimetric cell growth inhibition assay, IGROV-ET (ET-743 resistant); details: Homo sapiens, IGROV-ET; for GI50: GI=growth inhibition, read-out: GI50 IGROV-ET; for CC50: cell killing (cytotoxic effect), read-out: LC50 IGROV-ET; for IC (TGI): total growth inhibition (cytostatic effect), read-out: TGI IGROV-ET
# In short: as §1
# PANC-1 = assay: SRB colorimetric cell growth inhibition assay, PANC-1; details: for CC50: cell killing (cytotoxic effect), read-out: LC50 PANC-1; for GI50: GI=growth inhibition, read-out: GI50 PANC-1
# In short: as §1
# SKOV-3 = assay: SRB colorimetric cell growth inhibition assay, SKOV-3; details: Homo sapiens; for GI50: SK-OV-3, SKOV-3, GI=growth inhibition, read-out: GI50 SKOV-3; for LC50 (concentration causing 50% net cell killing) / IC (TGI): SK-OV-3, SKOV-3; for LC50 (concentration causing 50% net cell killing): cell killing (cytotoxic effect), read-out: LC50 SKOV-3; for IC (TGI): total growth inhibition (cytostatic effect), read-out: TGI SKOV-3
# Source text: A colorimetric type of assay, using sulforhodamine B (SRB) reaction has been adapted for a quantitative measurement of cell growth and viability (following the technique described by P. A. Skehan, et al., J. Natl. Cancer Inst. 1990, 82, 1107-1112).
# This form of assay employs 96 well cell culture microplates of 9 mm diameter (T. Mosmann et al., J. of Immunological Methods 1983, 65, 55-63; G. T. Faircloth et al., J. of Tissue and Culture Methods 1988, 11, 201-205).
# Most of the cell lines are obtained from American Type Culture Collection (ATCC) derived from different human cancer types.
# The values for mean +/− SD of data from triplicate wells are calculated. Some parameters for cellular responses can be calculated: GI=growth inhibition, TGI=total growth inhibition (cytostatic effect) and LC=cell killing (cytotoxic effect).
# [1] = SRB colorimetric cell growth inhibition assay, H-MEC-1; details: human, H-MEC-1 cells; H-MEC-1; cell killing (cytotoxic effect); read-out: LC50 H-MEC-1
# In short: (§2)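 Sulforhodamine B colorimetric assay of cell growth and viability, mean ± SD of triplicate wells. Parameters derived: GI (growth inhibition), TGI (total growth inhibition, cytostatic) and LC (cell killing, cytotoxic).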
# H-MEC-1 = assay: as above; details: Homo sapiens, HMEC-1, H-MEC-1; for GI50: GI=growth inhibition, read-out: GI50 H-MEC-1; for IC (TGI): total growth inhibition (cytostatic effect), read-out: TGI H-MEC-1
# In short: as §2
# [2] = Homo sapiens, SK-MEL-28, MEL-28
smiles,measurement,setting,value
COc1cc2ccn3c(c(-c4ccc(OC(=O)[C@@H](N)C(C)C)c(OC)c4)c4c5cc(OC)c(OC(=O)[C@@H](N)C(C)C)cc5oc(=O)c43)c2cc1OC [Compound 19],GI50,K-562,1.84 µM
same,CC50,K-562,11.6 µM
same,IC (TGI),K-562,4.62 µM
same,CC50,A-549; A-549,6.32 µM
same,TGI A-549,"A-549; A-549, total growth inhibition (cytostatic effect)",2.13E−06 Molar
same,GI50,"A-549; Homo sapiens, A549, A-549",0.605 µM
same,GI50,SK-MEL-28; MEL-28,0.273 µM
same,CC50,SK-MEL-28; MEL-28,4.99 µM
same,TGI MEL-28,"SK-MEL-28; MEL-28, total growth inhibition (cytostatic effect)",1.53E−06 Molar
same,GI50,HT-29; HT-29,0.109 µM
same,TGI HT-29,"HT-29; HT-29, total growth inhibition (cytostatic effect)",2.10E−06 Molar
same,CC50,"HT-29; Homo sapiens, HT-29, HT-29",7.29 µM
same,GI50,"LoVo; Homo sapiens, LoVo",0.722 µM
same,IC (TGI),"LoVo; Homo sapiens, LoVo",2.33 µM
same,CC50,LoVo; LOVO,6.6 µM
same,GI50,LoVo-Dox,0.874 µM
same,CC50,LoVo-Dox,8.03 µM
same,IC (TGI),LoVo-Dox,2.72 µM
same,CC50,DU-145; DU-145,6.85 µM
same,GI50,"DU-145; Homo sapiens, DU-145, DU-145",0.532 µM
same,IC (TGI),"DU-145; Homo sapiens, DU-145, DU-145",2.16 µM
same,GI50,LNCaP,0.0941 µM
same,CC50,LNCaP,5.37 µM
same,IC (TGI),LNCaP,1.41 µM
same,CC50,"SK-BR-3; Homo sapiens, SK-BR-3, SK-BR-3",14 µM
same,GI50,SK-BR-3; SK-BR-3,0.165 µM
same,TGI SK-BR-3,"SK-BR-3; SK-BR-3, total growth inhibition (cytostatic effect)",2.28E−06 Molar
same,GI50,IGROV,0.406 µM
same,CC50,IGROV,9.34 µM
same,IC (TGI),IGROV,2.51 µM
same,GI50,IGROV-ET,0.761 µM
same,CC50,IGROV-ET,11.3 µM
same,IC (TGI),IGROV-ET,2.54 µM
same,CC50,"PANC-1; Homo sapiens, PANC-1, PANC-1",9.5 µM
same,GI50,PANC-1; PANC-1,0.245 µM
same,TGI PANC-1,"PANC-1; PANC-1, total growth inhibition (cytostatic effect)",2.42E−06 Molar
same,GI50,SKOV-3,0.758 µM
same,LC50 (concentration causing 50% net cell killing),SKOV-3,6.57 µM
same,IC (TGI),SKOV-3,2.31 µM
same,LC50 (concentration giving 50% net cell killing),[1],7.16 µM
same,GI50,H-MEC-1,0.807 µM
same,IC (TGI),H-MEC-1,2.42 µM
COc1cc2c(cc1OC)-c1c(-c3ccc(OC(=O)[C@H](C)NC(=O)OC(C)(C)C)c(OC)c3)c3c4cc(OC)c(OC(=O)[C@H](C)NC(=O)OC(C)(C)C)cc4oc(=O)c3n1CC2 [Compound 21],GI50,K-562,0.286 µM
same,CC50,K-562,2.39 µM
same,IC (TGI),K-562,0.582 µM
same,GI50,"A-549; Homo sapiens, A549, A-549",1.39 µM
same,CC50,"A-549; Homo sapiens, A549, A-549",11.7 µM
same,IC (TGI),"A-549; Homo sapiens, A549, A-549, total growth inhibition (cytostatic effect), read-out: TGI A-549",4.62 µM
same,GI50,SK-MEL-28; [2],0.287 µM
same,CC50,SK-MEL-28; [2],0.86 µM
same,IC (TGI),"SK-MEL-28; Homo sapiens, SK-MEL-28, MEL-28, total growth inhibition (cytostatic effect), read-out: TGI MEL-28",0.497 µM
same,GI50,"HT-29; Homo sapiens, HT-29, HT-29",0.512 µM
same,CC50,"HT-29; Homo sapiens, HT-29, HT-29",11.7 µM
same,IC (TGI),"HT-29; Homo sapiens, HT-29, HT-29, total growth inhibition (cytostatic effect), read-out: TGI HT-29",11.7 µM
same,GI50,"LoVo; Homo sapiens, LoVo",1.95 µM
same,CC50,"LoVo; Homo sapiens, LoVo",11.7 µM
same,IC (TGI),"LoVo; Homo sapiens, LoVo",4.97 µM
same,GI50,LoVo-Dox,4.97 µM
same,CC50,LoVo-Dox,11.7 µM
same,IC (TGI),LoVo-Dox,11.7 µM
same,GI50,"DU-145; Homo sapiens, DU-145, DU-145",0.353 µM
same,CC50,"DU-145; Homo sapiens, DU-145, DU-145",11.7 µM
same,IC (TGI),"DU-145; Homo sapiens, DU-145, DU-145",0.703 µM
same,GI50,LNCaP,0.19 µM
same,CC50,LNCaP,0.775 µM
same,IC (TGI),LNCaP,0.383 µM
same,GI50,"SK-BR-3; Homo sapiens, SK-BR-3, SK-BR-3",0.342 µM
same,CC50,"SK-BR-3; Homo sapiens, SK-BR-3, SK-BR-3",11.7 µM
same,IC (TGI),"SK-BR-3; Homo sapiens, SK-BR-3, SK-BR-3, total growth inhibition (cytostatic effect), read-out: TGI SK-BR-3",0.599 µM
same,GI50,IGROV,0.315 µM
same,CC50,IGROV,9.02 µM
same,IC (TGI),IGROV,0.664 µM
same,GI50,IGROV-ET,0.901 µM
same,CC50,IGROV-ET,11.7 µM
same,IC (TGI),IGROV-ET,5.18 µM
same,GI50,"PANC-1; Homo sapiens, PANC-1, PANC-1",0.514 µM
same,CC50,"PANC-1; Homo sapiens, PANC-1, PANC-1",11.7 µM
same,IC (TGI),"PANC-1; Homo sapiens, PANC-1, PANC-1, total growth inhibition (cytostatic effect), read-out: TGI PANC-1",1.81 µM
same,GI50,SKOV-3,0.849 µM
same,LC50 (concentration causing 50% net cell killing),SKOV-3,11.7 µM
same,IC (TGI),SKOV-3,11.7 µM
same,LC50 (concentration giving 50% net cell killing),[1],0.922 µM
same,GI50,H-MEC-1,0.281 µM
same,IC (TGI),H-MEC-1,0.509 µM
